Assay results reported in patent US20250163104A1, “MACROCYCLIC IMMUNOMODULATORS” (priority 2021, published 2025).
Where a SMILES comes first, the peptide text is derived from it. Bridges are numbered along the chain shown (N, C = ends). [ ]: non-standard residue; d: D form. The star is where a group is joined. ξ: configuration not given here. Bip = N[C@@H](Cc1ccc(-c2ccccc2)cc1)C(=O)O; Phe(3-CN) = N#Cc1cccc(C[C@H](N)C(=O)O)c1; Phe(3-Me) = Cc1cccc(C[C@H](N)C(=O)O)c1; 3Pal = N[C@@H](Cc1cccnc1)C(=O)O; 4Pal = N[C@@H](Cc1ccncc1)C(=O)O; 2Thi = N[C@@H](Cc1cccs1)C(=O)O; Cha = N[C@@H](CC1CCCCC1)C(=O)O; Cit = NC(=O)NCCC[C@H](N)C(=O)O; Thr(3ξ) = CC(O)[C@H](N)C(=O)O; Phg = N[C@H](C(=O)O)c1ccccc1; Carboxymethyl = O=C(O)C*; Nle = CCCC[C@H](N)C(=O)O; Orn = NCCC[C@H](N)C(=O)O; Pra = C#CC[C@H](N)C(=O)O; Dab = NCC[C@H](N)C(=O)O; Dap = NC[C@H](N)C(=O)O

target: T1, human PD-1 / PD-L1-Ig binding on Jurkat cell line over-expressing human PD-1 (Jurkat-PD-1) (Homo sapiens, UniProt Q15116); experiment: Jurkat-PD-1 Cell Binding High-Content Screening Assay (CBA); type: cell-based; conditions: Jurkat HPD1_PDL1 IC50, Jurkat-PD-1 cells, PE-labeled PD-L1-Ig 20 nM final
T1 construct: expressed in transfected cells; host or cells: Jurkat
Outline: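 Cell-bound PE-labeled PD-L1-Ig (20 nM final, 1 h) measured by high-content imaging after fixation and Hoechst 33342 counterstain. Compound was applied first for 2 h at 37° C. to Jurkat cells over-expressing human PD-1 in DMEM with 10% FCS.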

T1 sequence (Q15116 25-288): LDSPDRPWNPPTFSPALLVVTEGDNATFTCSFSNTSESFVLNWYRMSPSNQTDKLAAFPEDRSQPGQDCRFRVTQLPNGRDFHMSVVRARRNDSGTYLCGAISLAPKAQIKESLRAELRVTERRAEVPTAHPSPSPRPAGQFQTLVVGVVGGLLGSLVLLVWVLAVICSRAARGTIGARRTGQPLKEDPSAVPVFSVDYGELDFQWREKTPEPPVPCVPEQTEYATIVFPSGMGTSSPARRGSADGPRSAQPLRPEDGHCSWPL

| SMILES | IC50 |
| --- | --- |
| CC(C)C[C@H]1NC(=O)[C@H](CCCN)NC(=O)[C@H](CCC(=O)O)NC(=O)[C@H](Cc2ccc(-c3ccccc3)cc2)NC(=O)[C@H](C(C)C)NC(=O)[C@H](Cc2c[nH]c3ccccc23)NC(=O)[C@H](CC(=O)O)NC(=O)[C@H](Cc2ccncc2)NC(=O)[C@H](Cc2ccc(OCC(=O)O)cc2)NC(=O)CSC[C@@H](C(=O)N[C@@H](C)C(N)=O)NC(=O)[C@H]([C@@H](C)O)NC(=O)[C@H](C(C)C)NC(=O)[C@H](CC2CCCCC2)NC(=O)[C@H](Cc2c[nH]cn2)NC1=O [Compound 1605] | 0.0231 µM |

same assay, conditions: Jurkat-PD-1 cells, PE-labeled PD-L1-Ig 20 nM final; read-out: Jurkat HPD1_PDL1 IC50

| IC50 | SMILES |
| --- | --- |
| 0.0116 µM | C#CC[C@H](NC(=O)[C@H](CCCN)NC(=O)[C@@H]1CSCC(=O)N[C@@H](CN)C(=O)N[C@@H](Cc2ccc(OCC(=O)O)cc2)C(=O)N[C@@H](CC(=O)O)C(=O)N[C@@H](Cc2cccc(C)c2)C(=O)N[C@@H](C(C)C)C(=O)N[C@@H](Cc2ccc(-c3ccccc3)cc2)C(=O)N[C@@H](C(C)C)C(=O)N[C@@H](CCCN)C(=O)N[C@H](CC(C)C)C(=O)N[C@@H](CCN)C(=O)N[C@@H](CC2CCCCC2)C(=O)N[C@@H](C(C)C)C(=O)N[C@@H]([C@@H](C)O)C(=O)N1)C(N)=O [Compound 2017] ({CH2CO}-[Dap]Y(Carboxymethyl)D[Phe(3-Me)]V[Bip]V[Orn][dL][Dab][Cha]VTC[Orn][Pra]-NH2; thioether N-14) |
| 0.0173 µM | Cc1cccc(C[C@@H]2NC(=O)[C@H](CC(=O)O)NC(=O)[C@H](Cc3ccc(OCC(=O)O)cc3)NC(=O)[C@H]([C@@H](C)O)NC(=O)CSC[C@@H](C(N)=O)NC(=O)[C@H]([C@@H](C)O)NC(=O)[C@H](C(C)C)NC(=O)[C@H](CC3CCCCC3)NC(=O)[C@H](CCN)NC(=O)[C@@H](CC(C)C)NC(=O)[C@H](CCCN)NC(=O)[C@H](Cc3ccc(OCC(=O)O)cc3)NC(=O)[C@H](Cc3ccc(-c4ccccc4)cc3)NC(=O)[C@H](Cc3ccc(OCC(=O)O)cc3)NC2=O)c1 [Compound 1800] ({CH2CO}-TY(Carboxymethyl)D[Phe(3-Me)]Y(Carboxymethyl)[Bip]Y(Carboxymethyl)[Orn][dL][Dab][Cha]VTC-NH2; thioether N-14) |
| 0.0071 µM | CC[C@H](C)[C@@H]1NC(=O)[C@H](Cc2ccc(-c3ccccc3)cc2)NC(=O)[C@H](C(C)C)NC(=O)[C@H](Cc2cccc(C)c2)NC(=O)[C@H](CC(=O)O)NC(=O)[C@H](Cc2ccc(C(=O)O)cc2)NC(=O)[C@H](Cc2ccncc2)NC(=O)CSC[C@@H](C(=O)N[C@@H](C)C(N)=O)NC(=O)[C@H]([C@@H](C)O)NC(=O)[C@H](C(C)C)NC(=O)[C@H](CC2CCCCC2)NC(=O)[C@H](CCN)NC(=O)[C@@H](CC(C)C)NC(=O)[C@H](CCCN)NC1=O [Compound 1192] |
| 0.0099 µM | CC(=O)NCCCC[C@@H]1NC(=O)CSC[C@@H](C(=O)N[C@@H](CO)C(N)=O)NC(=O)[C@H](C(C)O)NC(=O)[C@H](C(C)C)NC(=O)[C@H](CC2CCCCC2)NC(=O)[C@H](CCN)NC(=O)[C@@H](CC(C)C)NC(=O)[C@H](CCCN)NC(=O)[C@H](CCCNC(N)=O)NC(=O)[C@H](Cc2ccc(-c3ccccc3)cc2)NC(=O)[C@H](C(C)C)NC(=O)[C@H](Cc2cccc(C)c2)NC(=O)[C@H](CC(=O)O)NC(=O)[C@H](Cc2ccc(OCC(=O)O)cc2)NC1=O (stereo partly drawn) [Compound 2595] ({CH2CO}-K(Ac)Y(Carboxymethyl)D[Phe(3-Me)]V[Bip][Cit][Orn][dL][Dab][Cha]V[Thr(3ξ)]CS-NH2; thioether N-14) |
| 0.0153 µM | CC(C)C[C@H]1NC(=O)[C@H](CCCN)NC(=O)[C@H](CCC(=O)O)NC(=O)[C@H](Cc2ccc(-c3ccccc3)cc2)NC(=O)[C@H](C(C)C)NC(=O)[C@H](Cc2c[nH]c3ccccc23)NC(=O)[C@H](CC(=O)O)NC(=O)[C@H](Cc2cccs2)NC(=O)[C@H](CC(N)=O)NC(=O)CSC[C@@H](C(=O)N[C@@H](C)C(N)=O)NC(=O)[C@H]([C@@H](C)O)NC(=O)[C@H](C(C)C)NC(=O)[C@H](CC2CCCCC2)NC(=O)[C@H](CCN)NC1=O [Compound 2190] ({CH2CO}-N[2Thi]DWV[Bip]E[Orn][dL][Dab][Cha]VTCA-NH2; thioether N-14) |
| 0.0041 µM | CCCC[C@@H]1NC(=O)[C@H](CCN)NC(=O)[C@@H](CC(C)C)NC(=O)[C@H](CCCN)NC(=O)[C@H](C(C)C)NC(=O)[C@H](Cc2ccc(-c3ccccc3)cc2)NC(=O)[C@H](C(C)C)NC(=O)[C@H](Cc2cccc(C)c2)NC(=O)[C@H](CC(=O)O)NC(=O)[C@H](Cc2ccc(OCC(=O)O)cc2)NC(=O)[C@H](Cc2ccncc2)NC(=O)CSC[C@@H](C(=O)N[C@@H](C)C(N)=O)NC(=O)[C@H]([C@@H](C)O)NC(=O)[C@H](C(C)C)NC1=O [Compound 1199] ({CH2CO}-[4Pal]Y(Carboxymethyl)D[Phe(3-Me)]V[Bip]V[Orn][dL][Dab][Nle]VTCA-NH2; thioether N-14) |
| 0.154 µM | CC(C)C[C@H]1NC(=O)[C@H](CCCN)NC(=O)[C@H](CCC(=O)O)NC(=O)[C@H](Cc2ccc(-c3ccccc3)cc2)NC(=O)[C@H](C(C)C)NC(=O)[C@H](Cc2c[nH]c3ccccc23)NC(=O)[C@H](CC(=O)O)NC(=O)[C@H](Cc2ccc(OCC(=O)O)cc2)NC(=O)[C@H](CN)NC(=O)CSC[C@@H](C(=O)N[C@@H](C)C(N)=O)NC(=O)[C@H]([C@@H](C)O)NC(=O)[C@H](C(C)C)NC(=O)[C@H](Cc2cccc(C#N)c2)NC(=O)[C@H](CCN)NC1=O [Compound 1507] ({CH2CO}-[Dap]Y(Carboxymethyl)DWV[Bip]E[Orn][dL][Dab][Phe(3-CN)]VTCA-NH2; thioether N-14) |
| 0.0313 µM | CC(C)C[C@H]1NC(=O)[C@H](CCCN)NC(=O)[C@H](CCCNC(N)=O)NC(=O)[C@H](Cc2ccc(-c3ccccc3)cc2)NC(=O)[C@H](C(C)C)NC(=O)[C@H](Cc2c[nH]c3ccccc23)NC(=O)[C@H](CC(=O)O)NC(=O)[C@H](Cc2c[nH]c3ccccc23)NC(=O)[C@H](CN)NC(=O)CSC[C@@H](C(=O)N[C@@H](C)C(N)=O)NC(=O)[C@H]([C@@H](C)O)NC(=O)[C@H](C(C)C)NC(=O)[C@H](CC2CCCCC2)NC(=O)[C@H](CCN)NC1=O [Compound 2122] ({CH2CO}-[Dap]WDWV[Bip][Cit][Orn][dL][Dab][Cha]VTCA-NH2; thioether N-14) |
| 0.0108 µM | Cc1cccc(C[C@@H]2NC(=O)[C@H](CC(=O)O)NC(=O)[C@H](Cc3ccncc3)NC(=O)[C@H](Cc3ccc(OCC(=O)O)cc3)NC(=O)CSC[C@@H](C(=O)N[C@@H](C)C(N)=O)NC(=O)[C@H]([C@@H](C)O)NC(=O)[C@H](C(C)C)NC(=O)[C@H](CC3CCCCC3)NC(=O)[C@H](CCN)NC(=O)[C@@H](Cc3ccccc3)NC(=O)[C@H](CCCN)NC(=O)[C@H](CCC(=O)O)NC(=O)[C@H](Cc3ccc(-c4ccccc4)cc3)NC(=O)[C@H](C(C)C)NC2=O)c1 [Compound 1430] ({CH2CO}-Y(Carboxymethyl)[4Pal]D[Phe(3-Me)]V[Bip]E[Orn][dF][Dab][Cha]VTCA-NH2; thioether N-14) |
| 0.0897 µM | Cc1cccc(C[C@@H]2NC(=O)[C@H](CC(=O)O)NC(=O)[C@H](Cc3ccc(OCC(=O)O)cc3)NC(=O)[C@H](CN)NC(=O)CSC[C@@H](C(=O)N[C@@H](CCN)C(N)=O)NC(=O)[C@H](CCCN)NC(=O)[C@H](C(C)C)NC(=O)[C@H](CC3CCCCC3)NC(=O)[C@H](Cc3cccnc3)NC(=O)[C@@H](CC(C)C)NC(=O)[C@H](CCCN)NC(=O)[C@H](Cc3ccc(O)cc3)NC(=O)[C@H](Cc3ccc(-c4ccccc4)cc3)NC(=O)[C@H](Cc3ccc(O)cc3)NC2=O)c1 [Compound 2037] ({CH2CO}-[Dap]Y(Carboxymethyl)D[Phe(3-Me)]Y[Bip]Y[Orn][dL][3Pal][Cha]V[Orn]C[Dab]-NH2; thioether N-14) |
| 0.0103 µM | Cc1cccc(C[C@@H]2NC(=O)[C@H](CC(=O)O)NC(=O)[C@H](Cc3ccc(OCC(=O)O)cc3)NC(=O)[C@H](CN)NC(=O)CSC[C@@H](C(=O)N[C@@H](CCN)C(N)=O)NC(=O)[C@H]([C@@H](C)O)NC(=O)[C@H](C(C)C)NC(=O)[C@H](CC3CCCCC3)NC(=O)[C@H](CCN)NC(=O)[C@@H](CC(C)C)NC(=O)[C@H](CCCN)NC(=O)[C@H](CCCNC(N)=O)NC(=O)[C@H](Cc3ccc(-c4ccccc4)cc3)NC(=O)[C@H](C(C)C)NC2=O)c1 [Compound 2010] ({CH2CO}-[Dap]Y(Carboxymethyl)D[Phe(3-Me)]V[Bip][Cit][Orn][dL][Dab][Cha]VTC[Dab]-NH2; thioether N-14) |
| 0.0421 µM | CCNC(=O)[C@H](C)NC(=O)[C@@H]1CSCC(=O)N[C@@H](Cc2ccncc2)C(=O)N[C@@H](Cc2ccc(C(=O)O)cc2)C(=O)N[C@@H](CC(=O)O)C(=O)N[C@@H](Cc2cccc(C)c2)C(=O)N[C@@H](C(C)C)C(=O)N[C@@H](Cc2ccc(-c3ccccc3)cc2)C(=O)N[C@@H]([C@@H](C)CC)C(=O)N[C@@H](CCCN)C(=O)N[C@H](CC(C)C)C(=O)N[C@@H](CCN)C(=O)N[C@@H](CC2CCCCC2)C(=O)N[C@@H](C(C)C)C(=O)N[C@@H]([C@@H](C)O)C(=O)N1 [Compound 2004] |
| 0.014 µM | CC(C)C[C@H]1NC(=O)[C@H](CCCN)NC(=O)[C@H](C(C)C)NC(=O)[C@H](Cc2ccc(-c3ccccc3)cc2)NC(=O)[C@H](c2ccccc2)NC(=O)[C@H](Cc2c[nH]c3ccccc23)NC(=O)[C@H](CC(=O)O)NC(=O)[C@H](Cc2ccc(OCC(=O)O)cc2)NC(=O)[C@H](CN)NC(=O)CSC[C@@H](C(=O)N[C@@H](C)C(N)=O)NC(=O)[C@H]([C@@H](C)O)NC(=O)[C@H](C(C)C)NC(=O)[C@H](CC2CCCCC2)NC(=O)[C@H](CCN)NC1=O [Compound 1736] ({CH2CO}-[Dap]Y(Carboxymethyl)DW[Phg][Bip]V[Orn][dL][Dab][Cha]VTCA-NH2; thioether N-14) |
| 0.0055 µM | Cc1cccc(C[C@@H]2NC(=O)[C@H](CC(=O)O)NC(=O)[C@H](Cc3ccc(OCC(=O)O)cc3)NC(=O)[C@H](CN)NC(=O)CSC[C@@H](C(=O)N[C@@H](C)C(N)=O)NC(=O)[C@H](CCCN)NC(=O)[C@H](C(C)C)NC(=O)[C@H](CC3CCCCC3)NC(=O)[C@H](CCN)NC(=O)[C@@H](CC(C)C)NC(=O)[C@H](CCCN)NC(=O)[C@H](C(C)C)NC(=O)[C@H](Cc3ccc(-c4ccccc4)cc3)NC(=O)[C@H](C(C)C)NC2=O)c1 [Compound 1754] ({CH2CO}-[Dap]Y(Carboxymethyl)D[Phe(3-Me)]V[Bip]V[Orn][dL][Dab][Cha]V[Orn]CA-NH2; thioether N-14) |
